From ChEMBL document CHEMBL3414556, “Targeting aldose reductase for the treatment of diabetes complications and inflammatory diseases: new insights and future directions” (J Med Chem, 2015)

Columns and labels:
[1] = molecular target: T1, Aldo-keto reductase family 1 member B1 (Homo sapiens, UniProt P15121); assay: Inhibition of human AR by fluorescence assay
[2] = molecular target: Aldo-keto reductase family 1 member B10 (Homo sapiens, UniProt O60218); assay: Inhibition of wild-type N-terminal 6-His tagged AKR1B10 (unknown origin) expressed in Escherichia coli BL21(DE3) assessed as pyridine-3-aldehyde reduction by spectrophotometry
Aldo-keto reductase family 1 member B10, sequence (O60218 whole entry): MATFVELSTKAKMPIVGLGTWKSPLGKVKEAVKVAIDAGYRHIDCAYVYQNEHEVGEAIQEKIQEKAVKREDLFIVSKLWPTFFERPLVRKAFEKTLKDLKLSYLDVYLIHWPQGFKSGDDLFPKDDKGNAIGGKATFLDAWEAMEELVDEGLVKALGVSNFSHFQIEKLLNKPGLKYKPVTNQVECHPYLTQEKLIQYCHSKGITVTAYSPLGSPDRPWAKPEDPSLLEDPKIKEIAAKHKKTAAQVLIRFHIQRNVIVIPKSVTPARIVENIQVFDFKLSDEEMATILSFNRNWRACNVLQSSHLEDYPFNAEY

[3] = molecular target: T1, Aldo-keto reductase family 1 member B1; assay: Inhibition of human AR

| Compound | IC50 [1] | IC50 [2] | IC50 [3] |
| --- | --- | --- | --- |
| Cc1cccc(Nc2ccccc2C(=O)O)c1C [MEFENAMIC ACID] | 77 µM | 1.6 µM | – |
| O=C(O)Cc1ccccc1Nc1c(Cl)cccc1Cl [DICLOFENAC] | – | 1.9 µM | – |
| CC(=O)Oc1ccccc1C(=O)Nc1ncc([N+](=O)[O-])s1 [NITAZOXANIDE] | – | – | 8.22 µM |
| O=C(O)c1ccccc1Nc1cccc(C(F)(F)F)c1 [FLUFENAMIC ACID] | – | 0.76 µM | – |
